The text below walks through data of patent US20090215906A1 (priority 2005, published 2009).

Like-named read-outs stand apart in the source and are kept apart here.

The test system of data set [1] is Male Baboons. As to conditions: in vivo, 1.5 mg/kg.
Source text: (§1) The samples analyzed were sera taken on the day of first treatment before being given test article (day 0), after 12 days of treatment (day 12) and 7 days after the last treatment (end or washout).
In another data set the test system is men. As to conditions: cited from earlier work.
Data set [2] has as its system Male Baboons. In words: Effects of Clomids on serum testosterone and prolactin in male baboons. The class given is in vivo, Baboon. To be noted: 1.5 mg/kg for 12 days, in words. An excerpt:
There were no changes in serum LH or FSH. […] There was also no change in body weight during the 12 day study.

Data set [3] has as its system Male Baboons. In words: Effects of Clomids on serum cholesterol in male baboons. The format is in vivo, Baboon. As to conditions: 1.5 mg/kg for 12 days.
Source text: as §1
Data set [4] concerns Male Baboons. In words: Effects of Clomids on clinical chemistry and hematology parameters in male baboons.
Source text: as §1
Data set [5] deals with hypogonadal men.
Procedure: (§2) Half of the men in each of the Androxal™ and placebo arms were randomized into cohorts that underwent in-clinic sessions on days 1 and 14 to determine pharmacokinetic parameters for Androxal™ as well as cyclical changes in testosterone. The placebo and Androxal™ doses were administered in a double blind fashion. The Androgel® cream was administered in an open label fashion. Half of the Androgel® patients underwent in-clinic sessions similar to the other patients in the study. Following the two week drug exposure patients were followed for an additional seven to ten days to determine the status of their testosterone levels.
Data set [6] has as its system hypogonadal men. The source holds these as a separate data set.
Procedure: as §2
Where [7] appears, read: men, after 2 months, Guay et al. 1995.

For the compound `CCN(CC)CCOc1ccc(/C(=C(/Cl)c2ccccc2)c2ccccc2)cc1` [Zuclomid, cis-clomiphene], in the data set with Male Baboons [1], the effects on hematocrit entry was “substantive effects” and the “effects on the red blood cell population” value is “substantive effects”.

For the compound `CCN(CC)CCOc1ccc(C(=C(Cl)c2ccccc2)c2ccccc2)cc1` [Clomid, clomiphene], in the data set on men (setting [7]), the “LH, FSH, and testosterone” value is recorded as “increase”; the erectile dysfunction entry is listed as “no effects”. For the same compound, in the data set with men (men, after 6 months of treatment, WHO study), the “semen quality or fertility” value is “no changes”. The “free and total testosterone” value with men (men, Tenover et al. 1987) is “increases”. In addition, the “FSH, LH” value with men (young and old men after treatment, Tenover et al. 1987) is “increased”. Also, the “effect on total serum testosterone” value in the data set with Male Baboons [2] is listed as “more variable total testosterone levels”. Besides, the “serum cholesterol levels (in words)” value in the data set on Male Baboons [3] is listed as “slight increase”.

Consider `CCN(CC)CCOc1ccc(/C(=C(\Cl)c2ccccc2)c2ccccc2)cc1` [Enclomid, trans-clomiphene], for which, in the data set on Male Baboons [4] (1.5 mg/kg for 12 days), the counts of eosinophiles entry is recorded as “raising”, the “effects on the red blood cell population” value was “substantive effects” and the lymphocyte count entry was “increase”. For the same compound, the serum creatinine values result with Male Baboons [4] (between day 0 and Day 12) is on record as “no differences”. The “per cent of granulocytes in the blood” value in the data set with Male Baboons [4] (very strong after the 7-day washout) is “lowering”. Moreover, the “effect on total serum testosterone” value in the data set on Male Baboons [2] was “significant increases”. Also, the “changes in testosterone from baseline testosterone levels (in words)” value with hypogonadal men [5] (all doses) is on record as “statistically significant changes”. In the data set on hypogonadal men [5] (during treatment), the “serum levels of LH” value is recorded as “statistically increase”. For the same compound, in the data set with hypogonadal men [6] (average, non-dose dependent, after two weeks of therapy), the reduction in triglycerides is reported as 19.1%. For the same compound, in the data set with hypogonadal men [6] (two week exposure), the “side effects different than placebo” value is given as “no side effects”.
